Results as given in PMC10301603, “Potent and Selective Benzothiazole-Based Antimitotics with Improved Water Solubility: Design, Synthesis, and Evaluation as Novel Anticancer Agents” (Pharmaceutics, 2023).
Values after ≈ are worked out from the molar mass of the structure shown. Read-outs that look alike come from different tables or passages of the source.

Key:
bovine brain tubulin = assay: Tubulin polymerization inhibition (turbidimetry); assay type: biochemical; details: for IC50: concentration inhibiting 50% of microtubular protein polymerization in vitro, read-out: TPI IC50
Experimental: Microtubular protein was isolated from calf brain following the modified Shelanski method, based on temperature-dependent assembly/disassembly of tubulin [45]. The protein was stored at −80 °C, and its concentration was determined using the Bradford method before each use. Tubulin polymerization, which occurs when heating a buffered tubulin sample from 4 °C to 37 °C, is accompanied by an increase in the absorbance (at 450 nm) of the sample that was monitored by a Helios α spectrophotometer. […] Then, the temperature was adjusted to 4 °C, and the temperature being shifted to 37 °C allowed for the assembly process of tubulin. The turbidity caused by tubulin polymerization was measured by the increased absorbance at 450 nm. The increase in absorbance obtained for the control sample (without the ligand), which we considered to be 100% tubulin polymerization (0% inhibition), compared with the increase in absorbance determined for the sample containing ligands yielded the degree of tubulin polymerization inhibition (TPI), which is expressed as a percentage value. For the compounds displaying TPI values over 50% at 10 µM, the IC50 value for TPI was calculated. Measurements were performed in triplicate in two independent experiments using microtubular protein from different preparations.

[1] = Aqueous solubility, shake-flask method; assay type: physicochemical; details: pH 7.0 buffer, thermodynamic from solid, shaking flask, buffered media at pH 7.0, mean of three
Experimental: The aqueous solubility of compounds was measured in a Helios Alfa Spectrophotometer. Calibration lines at the maximum wavelength of absorbance were determined for each compound. Then, following the shake-flask method, a suspension of 5 mg of each compound in 500 µL in pH 7.0 buffer was stirred for 72 h at room temperature. The mixture was then filtrated over a […] filter to remove the insoluble fraction. The concentration of the compound in the resulting saturated solution was determined via UV absorbance measurement and interpolation in the calibration line. The aqueous solubility values are given as the average of three independent measurements.

HeLa cells [2] = tested on: HeLa cells; design: method as in PMID 25970265; details: read-out: IC50 cell proliferation of HeLa cells; cited from earlier work
[3] = cited from earlier work
HT-29 cells [4] = assay: Cell growth inhibition (MTT) in the presence of 10 µM verapamil (sensitivity to MDR efflux pumps); assay type: cell-based, human; details: 10 µM verapamil (P-gp/MDR1 inhibitor)
Experimental: (§1) Cells were plated in 96-well plates (100 µL/well) at the following concentrations: 30,000 cells/mL (HepG2, U87 MG, T98G, C6, LNCaP, PC3, and HT-29 cells) or 15,000 cells/mL (HeLa and MCF-7 cells). Previous experiments were performed to choose the optimal cell concentration (70–80% confluence) and avoid the formation of cell aggregates. Cells were incubated in complete DMEM or RPMI 1640 medium (see above) at 37 °C and 5% CO2 atmosphere for 24 h to allow for cell attachment to the plate. Then, every compound was added (10 µL/well) to a final concentration of 10 µM. Non-treated cells were used as negative controls. The antiproliferative activity of compounds was measured 72 h after the treatments using the MTT reagent (3-[4,5-dimethylthiazol-2-yl]-2,5-diphenyltetrazolium bromide), (MTT Thiazolyl Blue Tetrazolium Bromide, Sigma-Aldrich, St. Louis, MO, USA) dissolved in PBS at 5 mg/mL. Compounds showing antiproliferative effects at 10 µM were selected to determine their IC50 value. For that purpose, compounds were used at different concentrations ranging from 10^−10 to 10^−2 M. Measurements were performed in triplicate, and each experiment was repeated three times. The IC50 value was determined for every compound using Origin software (OriginLab, Washington, USA). To study the sensitivity to MDR efflux pumps of compounds, the IC50 values were determined by following the same procedure but in the presence of verapamil (final concentration of 10 µM).

HT-29 cells [5] = assay: Cell growth inhibition assay (MTT); assay type: cell-based, human; details: Homo sapiens, HT-29, 72 h after drug exposure
Experimental: (§2) The cell lines were obtained from ATTC (Manassas, VA, USA). HeLa (human cervix epithelioid carcinoma), MCF7 (human breast adenocarcinoma), HepG2 (human hepatocellular carcinoma), U87 MG (human glioblastoma), T98G (human glioblastoma), GL261 (murine glioma), LNCaP (human prostate cancer), PC-3 (human prostate cancer), and HEK-293 (human embryonic kidney) were grown in Dulbecco’s modified Eagle’s medium (DMEM, Gibco, Waltham, MA, USA), supplemented with 10% (v/v) heat-inactivated fetal bovine serum (HIFBS, Sigma-Aldrich, St. Louis, MO, USA)), 2 mM L-glutamine, 100 μg/mL streptomycin, and 100 units/mL penicillin (Gibco, Waltham, MA, USA) at 37 °C in saturated humidity atmosphere containing 95% air and 5% CO2. Cell line HT-29 (human colon carcinoma) was grown in Roswell Park Memorial Institute (RPMI) 1640 medium (Gibco, Whaltman, MA, USA) supplemented with 10% HIFBS, 100 μg/mL streptomycin, and 100 units/mL penicillin (Gibco, Whaltman, MA, USA) at 37 °C in humidified 95% air and 5% CO2 atmosphere. MycoAlert kit (Lonza, Norwest, Australia) was used to routinely check the presence of mycoplasma, and only mycoplasma-free cells were employed in the experiments.
as §1

HepG2 cells = assay: Cell growth inhibition assay (MTT); assay type: cell-based, human; details: Homo sapiens, HepG2, 72 h after drug exposure
Experimental: as §2, §1

PC-3 cells = assay: Cell growth inhibition assay (MTT); assay type: cell-based, human; details: Homo sapiens, PC-3, 72 h after drug exposure
Experimental: as §2, §1

MCF7 cells = assay: Cell growth inhibition assay (MTT); assay type: cell-based, human; details: Homo sapiens, MCF7; MTT, 72 h after drug exposure
Experimental: as §2, §1

LNCaP cells = assay: Cell growth inhibition assay (MTT); assay type: cell-based, human; details: Homo sapiens, LNCaP, 72 h after drug exposure
Experimental: as §2, §1

T98G cells = assay: Cell growth inhibition assay (MTT); assay type: cell-based, human; details: Homo sapiens, T98G, 72 h after drug exposure
Experimental: as §2, §1

HeLa cells [6] = assay: Cell growth inhibition assay (MTT); assay type: cell-based, human; details: Homo sapiens, HeLa, 72 h after drug exposure
Experimental: as §2, §1

U87MG cells = assay: Cell growth inhibition assay (MTT); assay type: cell-based, human; details: Homo sapiens, U-87 MG; MTT, 72 h after drug exposure
Experimental: as §2, §1

tumor cell lines = assay: Cell growth inhibition assay (MTT), summary statements over several cell lines; assay type: cell-based; details: read-out: antiproliferative IC50
Experimental: as §1

HEK-293 cells = assay: Cell growth inhibition assay (MTT), non-tumorigenic cells; assay type: cell-based, human; details: Homo sapiens, HEK293, 72 h after drug exposure, non-tumorigenic cell line
Experimental: as §2, §1

GL261 cells = assay: Cell growth inhibition assay (MTT); assay type: cell-based, murine; details: Mus musculus, GL261, 72 h after drug exposure
Experimental: as §2, §1

solubility at 72 h ([1]; pH 7, aqueous buffer) | IC50 (HT-29 cells [4]) | IC50 (HT-29 cells [5]) | IC50 (HepG2 cells) | IC50 (PC-3 cells) | IC50 (MCF7 cells) | IC50 (LNCaP cells) | IC50 (HeLa cells [6]) | IC50 (U87MG cells) | Structure (SMILES) | IC50 (bovine brain tubulin) | IC50 (T98G cells) | IC50 (HEK-293 cells) | IC50 (GL261 cells) | further results
– | – | – | – | – | – | – | – | – | Cc1cc2nc(/C=C/c3cccnc3)sc2cc1C [MI181, reference compound] | 4600 nM | – | – | – | solubility at 72 h ([1]; aqueous buffer): 5.6 µg/mL (≈ 21 µM); IC50 (HeLa cells [2]): 17 nM
90 µg/mL (≈ 301 µM) | 540 nM | 557 nM | 321 nM | 423 nM | 221 nM | 315 nM | 331 nM | 254 nM | COc1ccc2nc(N(C=O)Cc3ccccn3)sc2c1 [Compound 13, N-(6-methoxybenzo[d]thiazol-2-yl)-N-(pyridin-2-ylmethyl)formamide] | 5000 nM | 327 nM | 9310 nM | 195 nM | % TPI (bovine brain tubulin; compounds tested at 10 µM, with respect to the negative control): 80%; IC50 (tumor cell lines; Homo sapiens, MCF7, glioblastoma and MCF7 cells): ~200 nM; IC50 (tumor cell lines; all the cell lines): 300 to 500 nM
57 µg/mL (≈ 210 µM) | 2150 nM | 2230 nM | 1190 nM | 1550 nM | 1170 nM | 1430 nM | 1270 nM | 1320 nM | COc1ccc2nc(NCc3cccnc3)sc2c1 [Compound 2, 6-methoxy-N-(pyridin-3-ylmethyl)benzo[d]thiazol-2-amine] | > 10000 nM | 2110 nM | > 10000 nM | 1910 nM | IC50 (tumor cell lines; HeLa, HepG2, MCF7, and U87MG): ~1000 nM; IC50 (tumor cell lines; the rest of the tumor cell lines (other than HeLa, HepG2, MCF7, U87MG)): 2000 to 3000 nM

Structure (SMILES) | solubility at 72 h ([1]; pH 7, aqueous buffer) | IC50 (HT-29 cells [4]) | IC50 (HT-29 cells [5]) | IC50 (HepG2 cells) | IC50 (PC-3 cells) | IC50 (MCF7 cells) | IC50 (LNCaP cells) | IC50 (HeLa cells [6]) | IC50 (U87MG cells) | IC50 (bovine brain tubulin) | IC50 (T98G cells) | IC50 (HEK-293 cells) | IC50 (GL261 cells) | further results
COc1ccc(/C=C\c2cc(OC)c(OC)c(OC)c2)cc1O [CA-4, combretastatin A-4, reference compound] | 1.1 µg/mL (≈ 3.48 µM) | – | – | – | – | – | – | – | – | […] | – | – | – | water solubility [3]: 1 µg/mL (≈ 3.16 µM)
